Source: paper PMC9296036, “A peptide interfering with the dimerization of oncogenic KITENIN protein and its stability suppresses colorectal tumour progression” (Clinical and Translational Medicine, 2022)
“Also recorded” adds a separate entry of the source. Ends that are not written are not given here.

Test system: CT-26/EV tumours
Assay: Syngeneic subcutaneous tumour model, CT-26/EV cells in BALB/c mice
Format: in vivo, mouse
Conditions: CT-26/EV (no forced KITENIN overexpression), KDIP 1 mg/kg intravenously alternate days for 14 days
Description: The CT‐26 cell/syngeneic mouse model was used to investigate the in vivo effects of KDIP on colorectal tumourigenesis, as it is reported that a syngeneic mouse tumour model is good for testing the anticancer effects of candidate substances.[25], [26] Male Balb/c mice (5‐week old) were purchased from DaMul Science, Korea and acclimated for 1 week prior to subcutaneous injection of syngeneic CT‐26/EV (3 × 10^6) or CT‐26/KITENIN cells (1 × 10^6) into the dorsum. Tumour volume was calculated using the following equation: V = 1/2 × a × b […], where a and b are the longest and shortest diameters of the tumour (in millimetres), respectively. Tumour volume was measured every other day for 14 days to verify the effects of KDIP. All mice were sacrificed after Day 30 (Figure 7B), and the subcutaneous tumour grafts were surgically excised and weighed.
For the experimental tumour model, CT‐26/EV or CT‐26/KITENIN‐V5 cells were injected into the right back of BALB/c mice to form tumours, and KDIP was injected intravenously according to the timeline shown in Figure 7B. Considering the suppressive effect of KDIP on the cell invasion of CT‐26 cells, the initial test dosage was set to 1 mg/kg, which is equivalent to the half‐maximal inhibitory concentration (IC50) of KDIP on cell invasion. […] After 2 weeks of treatment, the mice were sacrificed and the tumours were analysed. […]

In the case of YARVRRRGPRRWRLVSDEAV [KDIP], the “tumour growth (in words)” value is reported as “little effect on tumor growth; also recorded: little effect on tumour growth”.
